Legend:
[1] = system: HepG2 cells; experiment: Variation in NADPH levels (total NADPH/NADP ratio), spectrophotometric kit; assay type: cell-based, human; conditions: HepG2 cells, 5, 10, 100 and 500 μM, 72 hours
Description: (§1) Although it is known that under hyperglycemic conditions α-LA induces AMPK activation in hepatic cells, the molecular mechanisms responsible for this biochemical process are not yet known. As envisaged in the description, the inventors of the present invention have advanced the hypothesis that AMPK activation by α-LA is the result of changes in the amount of NADH and NADHP present in cells, due to the interference of α-LA and/or its analogous derivatives in the oxidation-reduction processes. To verify this hypothesis, use was made of commercial kits (by Valter Occhiena) able to analyze the variations in the cellular amounts of NAD(P)H relative to total NAD(P), in the presence of increasing concentrations of the compounds under analysis (total NAD=NADH+NAD^+; total NADP=NADPH+NADP^+).

[2] = system: HepG2 cells; experiment: Variation in NADH levels (total NADH/NAD ratio), spectrophotometric kit; assay type: cell-based, human; conditions: 100 and 500 μm, 72 hours
Description: as §1

[3] = system: human hepatocarcinoma cells (HepG2 cells); experiment: Evaluation of cell viability (ATPlite luminometric assay) and cell proliferation; assay type: cell-based; conditions: 1 mM
Description: Dose-dependent concentration studies of the synthesized compounds were carried out and compared with the effects of alpha-lipoic acid, defined as reference standard, on human hepatocarcinoma cells (HepG2 cells) with the aim of evaluating their effects on cell viability.
Analysis by optical microscope enabled any morphological changes and accumulation of lipid vesicles to be determined as well as to evaluate cell proliferation or arrest.
A luminometric assay (ATPlite, Perkin Elmer), based on the production of light caused by a reaction with the intracellular ATP of viable cells, enabled the compounds to be classified on the basis of their viability index. In this respect, the signal detected by the luminometer is proportional to the number of viable cells. […]

[4] = system: diabetic rats; conditions: diabetes type II models, high doses of α-LA (30 mg/kg in rats); cited from earlier work
[5] = in man, cited from earlier work

Row | Structure (SMILES) | effect on NADPH levels (FIG. 11) [1] | amount of NADH at high concentrations (FIG. 10) [2] | confluence reached by HepG2 cells (arrest of cell proliferation) [3] | glycemia in diabetic rats [4] | bioavailability after oral administration ([5]; oral) | plasma half life (t1/2) [5] [min]
1 | O=C(O)CCCC[C@@H]1CCSS1 [(R)-α-LA, (R)-alpha-lipoic acid, reference compound] | influenced NADPH levels, in a dose dependent manner | decrease in NADH levels | 60-70% | – | – | –
2 | O=C(O)CCCC[C@@H]1CCSS1 (racemic) [α-LA, 1,2-dithiolane-3-pentanoic acid] | – | – | – | reduces glycemia | less than 30% | 28

Source: US20110212954A1, “ALPHA-LIPOIC ACID DERIVATIVES AND THEIR USE IN DRUG PREPARATION” (priority 2008, published 2011)
